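Following 48 hours of exposure in 96-well plates, responses at five concentrations were used to interpolate endpoints linearly. GI50: concentration for 50% inhibition of growth.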 The source made the active and inactive calls. Rule as the data show it: active = GI50 up to about 1.1 µM and inactive = higher.
Experiments:
Assay in all cases: growth of human tumour cells (NCI), 48 h
BT-549 = test system: BT-549
CCRF-CEM = test system: CCRF-CEM
COLO 205 = test system: COLO 205
EKVX = test system: EKVX
HCC 2998 = test system: HCC 2998
HOP-62 = test system: HOP-62
K562 = test system: K562
LOX IMVI = test system: LOX IMVI
MDA-N = test system: MDA-N
MOLT-4 = test system: MOLT-4
NCI-H226 = test system: NCI-H226
NCI-H23 = test system: NCI-H23
OVCAR-5 = test system: OVCAR-5
RPMI-8226 = test system: RPMI-8226
SK-MEL-2 = test system: SK-MEL-2
SR = test system: SR
U-251 = test system: U-251
UACC-62 = test system: UACC-62
T47D = test system: T47D

Measured: GI50

Nc1ccc2ccc(N3CCNCC3)nc2n1
inactive: BT-549 65.8 µM | CCRF-CEM 31.6 µM | COLO 205 49.1 µM | EKVX 74.1 µM | HCC 2998 44.2 µM | HOP-62 23.9 µM | K562 50.8 µM | LOX IMVI > 100 µM | MDA-N 75 µM | MOLT-4 32.4 µM | NCI-H226 21.4 µM | NCI-H23 56.8 µM | OVCAR-5 32.4 µM | RPMI-8226 84.3 µM | SK-MEL-2 35.1 µM | SR 33.4 µM | U-251 80.2 µM | UACC-62 59.2 µM

CC[N+](C)(CC)CCN1C(=O)c2ccccc2S1(=O)=O
inactive: BT-549 > 100 µM | CCRF-CEM > 100 µM | COLO 205 > 100 µM | EKVX > 100 µM | HOP-62 > 100 µM | LOX IMVI > 100 µM | MOLT-4 39.8 µM | NCI-H226 > 100 µM | NCI-H23 > 100 µM | OVCAR-5 > 100 µM | RPMI-8226 > 100 µM | SK-MEL-2 > 100 µM | T47D > 100 µM | U-251 > 100 µM | UACC-62 > 100 µM

C(CCCCc1nnc(N2CCCCC2)o1)CCCc1nnc(N2CCCCC2)o1
inactive: BT-549 > 100 µM | CCRF-CEM > 100 µM | COLO 205 > 100 µM | EKVX > 100 µM | HCC 2998 > 100 µM | HOP-62 > 100 µM | K562 > 100 µM | LOX IMVI > 100 µM | MOLT-4 > 100 µM | NCI-H226 > 100 µM | NCI-H23 > 100 µM | OVCAR-5 > 100 µM | SK-MEL-2 > 100 µM | U-251 > 100 µM

CCOC(=O)C(=CNC(=S)Nc1c(CC)cccc1CC)C(=O)OCC
inactive: CCRF-CEM > 100 µM | COLO 205 > 100 µM | EKVX > 100 µM | HCC 2998 > 100 µM | HOP-62 > 100 µM | K562 > 100 µM | LOX IMVI > 100 µM | MDA-N > 100 µM | MOLT-4 > 100 µM | NCI-H226 > 100 µM | NCI-H23 > 100 µM | OVCAR-5 > 100 µM | RPMI-8226 > 100 µM | SK-MEL-2 > 100 µM | SR > 100 µM | T47D > 100 µM | U-251 > 100 µM | UACC-62 > 100 µM

CN1C(=O)C(C(=O)Nc2ccccn2)C2C[C@@]1(C)Oc1ccccc12 (stereo partly specified)
inactive: BT-549 > 100 µM | CCRF-CEM > 100 µM | COLO 205 > 100 µM | EKVX 63.5 µM | HCC 2998 > 100 µM | HOP-62 > 100 µM | K562 > 100 µM | LOX IMVI > 100 µM | MDA-N > 100 µM | MOLT-4 62.7 µM | NCI-H226 > 100 µM | NCI-H23 > 100 µM | OVCAR-5 > 100 µM | RPMI-8226 56.1 µM | SK-MEL-2 > 100 µM | U-251 > 100 µM | UACC-62 12 µM

CCN(CC)CC1CCCCN1CC(=O)N1c2ccccc2NC(=O)c2ccccc21 (stereo unspecified)
inactive: CCRF-CEM > 100 µM | COLO 205 > 100 µM | EKVX > 100 µM | HCC 2998 > 100 µM | HOP-62 > 100 µM | K562 79.3 µM | LOX IMVI > 100 µM | MDA-N > 100 µM | MOLT-4 > 100 µM | NCI-H226 > 100 µM | NCI-H23 > 100 µM | OVCAR-5 > 100 µM | RPMI-8226 > 100 µM | SK-MEL-2 > 100 µM | SR > 100 µM | T47D > 100 µM | U-251 > 100 µM | UACC-62 > 100 µM

COC(=O)[C@@H](Cc1ccccc1)NNC(=O)OC(C)(C)C
inactive: BT-549 > 100 µM | CCRF-CEM > 100 µM | COLO 205 > 100 µM | EKVX > 100 µM | HCC 2998 > 100 µM | HOP-62 > 100 µM | K562 > 100 µM | LOX IMVI > 100 µM | MOLT-4 > 100 µM | NCI-H23 > 100 µM | OVCAR-5 > 100 µM | RPMI-8226 > 100 µM | SR > 100 µM | T47D > 100 µM | U-251 > 100 µM | UACC-62 > 100 µM

COc1ccccc1CNC1=Nc2ccncc2S(=O)(=O)N1c1ccccc1
inactive: BT-549 > 100 µM | CCRF-CEM 95.5 µM | COLO 205 63.4 µM | EKVX > 100 µM | HCC 2998 > 100 µM | K562 71 µM | LOX IMVI > 100 µM | MOLT-4 69 µM | NCI-H226 > 100 µM | NCI-H23 85.1 µM | OVCAR-5 > 100 µM | RPMI-8226 60.5 µM | SR 92.7 µM | U-251 52.1 µM | UACC-62 35.9 µM

CC(C)C1=CC23CCC4C(C)(C(=O)O)CCCC4(C)C2CC1C(C(=O)O)C3C(=O)O (stereo unspecified)
inactive: BT-549 > 100 µM | CCRF-CEM > 100 µM | EKVX > 100 µM | HOP-62 > 100 µM | K562 > 100 µM | LOX IMVI > 100 µM | MOLT-4 > 100 µM | NCI-H226 > 100 µM | NCI-H23 > 100 µM | OVCAR-5 > 100 µM | SK-MEL-2 > 100 µM | SR > 100 µM | T47D > 100 µM | U-251 > 100 µM | UACC-62 > 100 µM

From ChEMBL document CHEMBL1201862, “PubChem BioAssay data set” (2004)
